Data: PMC7539967, “The Plasmodium falciparum eIK1 kinase (PfeIK1) is central for melatonin synchronization in the human malaria parasite. Melatotosil blocks melatonin action on parasite cell cycle” (Journal of Pineal Research, 2020)
“Also recorded” adds a separate entry of the source. Like-named read-outs stand apart in the source and are kept apart here.

How the values were obtained:
[1] = tested on: Plasmodium falciparum 3D7; experiment: In vitro growth assay and flow cytometry analysis (72 h), 3D7; assay type: cell-based; details: for IC50: Plasmodium falciparum
Experimental: (§1) Red blood cells infected with P. falciparum 3D7 or PfeIK1^‐ (iRBC) with 0.3 % initial parasitemia and 1% hematocrit were incubated with different concentrations of compounds Tripbenz (4), Triptosil (5), Triptiofen (6), Tripfuroila (7), and Tripcicloexil (8) ranging from 0.107 to 110 µM, and compounds Melatobenz (9), Melatotosil (10), Melatofuroila (11), and Melatocicloexil (12) ranging from 0.1 to 100 µM for 72 hours at 37°C under mixture of gases. The control group was treated with solvent dimethyl sulfoxide (DMSO) (v/v), with the highest concentration of solvent 0.14%. Chloroquine was used as positive control with concentrations ranging from 0.244 to 250 nM. Parasitemia was determined from dot plots (side scatter versus fluorescence) of at least 10^3 cells acquired on a FACSCalibur flow cytometer using […] software (Becton Dickinson) or an Accuri C6 flow cytometer (Becton Dickinson). Initial gating was carried out with unstained, uninfected erythrocytes to account for erythrocyte auto fluorescence. The concentration responsible for 50% inhibition (IC50) was determined from the compound concentration‐response curve determined with the software GraphPad Prism 6.
(§2) For assays with antimalarials, iRBC were incubated with different concentrations of Atovaquone ranging from 0.02 to 24 nM, or Artemisinin 0.15‐160 nM.
(§3) After 72 hours, iRBC were stained with nucleic acid marker SYBR Green I (1X) (Invitrogen) and mitochondria marker based on membrane potential MitoTracker Deep Red (50 nM) (Invitrogen), and incubated for 20 minutes at 37°C. Final parasitemia was obtained by flow cytometer using a BD Accuri C6 Flow Cytometer, collecting 10^4 cells. Parasitemia was determined by dot plots using FlowJo 5 software.
(§4) At least three independent experiments were performed in triplicate to calculate the IC50 values for each drug.

P. falciparum PfeIK1^‐ [2] = experiment: In vitro growth assay and flow cytometry analysis (72 h), PfeIK1 knockout; assay type: cell-based, Plasmodium falciparum; details: for IC50: Plasmodium falciparum
Experimental: as §1, §2, §3, §4

P. falciparum PfeIK1^‐ [3] = experiment: Effect of compounds on melatonin action on parasitemia, PfeIK1 knockout; assay type: cell-based, Plasmodium falciparum; details: 500 nM compound + 100 nM melatonin, 48 h, normalized to control
Experimental: (§5) To evaluate the effect of the compounds on melatonin action on parasitemia, iRBC were incubated with 500 nM of compounds for 10 minutes and then along with 100 nM of melatonin for 48 hours at 37°C under mixture of gases.
(§6) After 48 hours, iRBC were double‐stained ^34 with nucleic acid marker SYBR Green I (1X) and mitochondria marker, based on membrane potential, MitoTracker Deep Red (50 nM), and incubated for 20 minutes at 37°C.
(§7) Final parasitemia was obtained by flow cytometer using an Accuri C6 flow cytometer (Becton Dickinson), collecting 10^4 cells. Parasitemia was determined by dot plots using FlowJo 5 software.

[4] = tested on: Human Embryonic Kidney cells (HEK293); experiment: Cytotoxicity Assay in HEK293 cells (MTT); assay type: cell-based; details: 0.107 to 110 µM, 72 h
Experimental: To evaluate toxicity of the new indole compounds in mammalian cells, Human Embryonic Kidney cells (HEK293) were maintained in 75 cm^2 culture flasks (Greiner Bio‐One) at 37°C, 5%CO2 in […] (DMEM), supplemented with 10% fetal bovine serum, NaHCO33.7 g/L (Sigma), 100 U/mL penicillin/, and 100 μg/mL streptomycin in monolayers.
Cells were plated in flat‐bottom 96‐well plates in a density of 10^4 cells per well and incubated for 24 hours in 150 µL media at 37°C, 5%CO2. Cells were then treated with different concentrations of each compound, ranging from 0.107 to 110 µM in 200 µL DMEM for 72 hours at 37°C and 5%CO2. Cells treated with DMSO (v/v) with the highest concentration of solvent 0.14% were used as control.
After incubation, 40 µL of MTT reagent (solution 5 mg/mL in PBS) was added to each well, and cells were incubated for further 3 hours at 37°C and 5% CO2. The media were removed and 100 µL of DMSO was added in each well. Plates were agitated in a shaker for 10 minutes to dissolve precipitates. Absorbance was read at 570 nm in a FlexStation 3 (Molecular Devices). Six experiments were performed independently in triplicates.

[5] = tested on: Plasmodium falciparum 3D7; experiment: Effect of compounds on melatonin action on parasitemia, 3D7; assay type: cell-based; details: 3D7, 500 nM compound + 100 nM melatonin, 48 h
Experimental: as §5, §6, §7

[6] = tested on: Plasmodium falciparum 3D7; experiment: Effect of indole compounds in parasitemia (48 h), 3D7; assay type: cell-based; details: 3D7, 500 nM compound; for activity at 0.5 µM: Plasmodium falciparum, read-out: final parasitemia normalized to control
Experimental: (§8) Red blood cells infected (iRBC) with 3D7 or PfeIK1^‐ (iRBC) with 1% initial parasitemia and 2% hematocrit were incubated with 500 nM of the synthetic indole compounds or 100 nM Melatonin for 48 hours at 37°C under mixture of gases. ^12 The control group received 0.0013% of solvent dimethyl sulfoxide (DMSO).
as §6, §7

P. falciparum PfeIK1^‐ [7] = experiment: Effect of indole compounds in parasitemia (48 h), PfeIK1 knockout; assay type: cell-based; details: Plasmodium falciparum, read-out: final parasitemia normalized to control
Experimental: as §8, §6, §7

[8] = tested on: P. falciparum GCaMP3 parasites; experiment: Calcium assay in transgenic PfGCaMP3 parasites; assay type: cell-based, Plasmodium falciparum; details: 500 nM; for cytosolic calcium rise: PfGCaMP3; for Fmax/F0 (maximum fluorescence normalized to baseline): PfGCaMP3, 120 cells
Experimental: Calcium assays were performed using the transgenic P. falciparum GCaMP3 parasites. ^37 PfGCaMP3 cultures were synchronized at least three times with 5% sorbitol before starting the experiments, and parasitemia was maintained between 5% and 8%. PfGCaMP3 parasites were cultivated with 10 nM/mL of WR for selection. Parasites were isolated with saponin (0.016%) and collected by centrifugation 8000 rpm, subsequently washed twice with buffer M, and allowed to settle in a four‐well plate for microscope coated with poly‐L‐lysine for 30 minutes at 37°C with 5% CO2 in buffer M ([…], 5.4 mM KCl, 0.8 mM MgSO4, 5.5 mMD‐glucose, 50 mM MOPS, and 2 mM CaCl2, pH 7.2). The compounds used for measuring calcium assays were as follows: Melatotosil and Triptiofen solubilized in DMSO.
Images were captured using a Nikon Eclipse Ti2 inverted microscope with FITC filter. Images were collected every 10 seconds for 5 minutes, with NIS‐Elements Ar 5.11.01 from Nikon using 60× lens. All experiments were performed at least three independent times in duplicates.

P. falciparum (3D7) = experiment: Microscopy evaluation of blood-stage development (Giemsa smears); assay type: cell-based, Plasmodium falciparum; details: for parasites in segmented schizont stage: 48 h, 3D7, Giemsa smears
Experimental: Plasmodium falciparum (3D7) cultures were synchronized by three rounds of 5% sorbitol treatment for 1 hour. ^35 Parasites at ring stage with initial 1% parasitemia and 2% hematocrit were incubated with Triptiofen (6) at concentrations of 1 and 10 µM in 24‐well plates for 48 hours at 37°C under mixture of gases. The DMSO solvent (0.1%) was used as a control. Smears of infected erythrocytes stained with Giemsa were performed at regular intervals (0, 12, 24, 36 and 48 hours after treatment). ^36 Parasite images were acquired under a light microscope (Zeiss) with 100× magnification to assess the parasite's blood development stages. The parasitemia at the end of the experiment was quantified for comparison between groups. Three independent experiments were performed in triplicate. Data were analyzed using software GraphPad Prism 6.

[9] = 72 h, parasitemia by flow cytometry, wild-type 3D7, read-out: IC50 3D7 strain (antimalarials)
[10] = read-out: IC50 PfelK1^‐ strain (antimalarials)
[11] = 3D7, 72 h, read-out: IC50 (µM) 3D7 strain
[12] = read-out: IC50 (µM) PfelK1^‐ strain

| SMILES | IC50 [1, 11] [µM] | final parasitemia, compound along with melatonin (P. falciparum PfeIK1^‐ [3]) [%] | toxicity in HEK293 cells [4] | ability to abolish the increase in parasitemia triggered by melatonin [5] | decrease in parasitemia compared to treatment with the hormone only [5] [%] | parasitemia normalized to control, compound along with melatonin [5] [%] | IC50 (P. falciparum PfeIK1^‐ [2]; [12]) [µM] | activity at 0.5 µM [6] [%] | activity at 0.5 µM (P. falciparum PfeIK1^‐ [7]) [%] | further results |
| --- | --- | --- | --- | --- | --- | --- | --- | --- | --- | --- |
| CCN(CC)CCCC(C)Nc1ccnc2cc(Cl)ccc12 (stereo not shown) [Chloroquine, reference compound] | – | – | – | – | – | – | – | – | – | IC50 ([1]; 3D7, 72 h, read-out: IC50 3D7 strain (antimalarials)): 0.0099 µM |
| C[C@@H]1CC[C@H]2[C@@H](C)C(=O)O[C@@H]3O[C@@]4(C)CC[C@@H]1[C@]32OO4 [Artemisinin, reference compound] | – | – | – | – | – | – | – | – | – | IC50 [1, 9]: 0.0137 µM; IC50 (P. falciparum PfeIK1^‐ [2]; [10]): 0.0188 µM |
| Cc1ccc(S(=O)(=O)NCCc2c[nH]c3ccccc23)cc1 [Triptosil (5), N‐(2‐(1H‐indol‐3‐yl)ethyl)‐4‐methylbenzenesulfonamide] | 19.8 ± 5.33 | 105.4 ± 2.05 | no toxicity | able to abolish | 9.7 | 100 | 30.6 ± 1.55 | 100 | 99.3 ± 2.18 | – |
| O=C(NCCc1c[nH]c2ccccc12)c1ccco1 [Tripfuroila (7), N‐(2‐(1H‐indol‐3‐yl)ethyl)furan‐2‐carboxamide] | 17.1 ± 2.6 | 102.3 ± 1.53 | no toxicity | able to abolish | 11.25 | 98.52 | 23.6 ± 2.2 | 101 | 98.5 | – |
| O=C1C(O)=C([C@H]2CC[C@H](c3ccc(Cl)cc3)CC2)C(=O)c2ccccc21 [Atovaquone, reference compound] | – | – | – | – | – | – | – | – | – | IC50 [1, 9]: 0.0004 µM; IC50 (P. falciparum PfeIK1^‐ [2]; [10]): 0.00047 µM |
| COc1ccc2[nH]cc(CCNS(=O)(=O)c3ccc(C)cc3)c2c1 [Melatotosil (10), N‐(2‐(5‐methoxy‐1H‐indol‐3‐yl)ethyl)‐4‐methylbenzenesulfonamide] | – | 106.2 ± 1.55 | – | able to abolish | 11.69 | 98.07 | – | – | 97.5 | cytosolic calcium rise [8]: elicits a calcium rise; Fmax/F0 (maximum fluorescence normalized to baseline) [8]: 1.21 ± 0.01; IC50 (µM) 3D7 strain ([1]; 72 h, parasitemia by flow cytometry, wild-type 3D7): without antimalarial activity; also recorded: No activity; IC50 (µM) PfelK1^‐ strain (P. falciparum PfeIK1^‐ [2]; parasitemia by flow cytometry, PfeIK1 knockout): No activity; increase in parasitemia compared to control group [6]: 10% |
| COc1ccc2[nH]cc(CCNC(=O)C3CCCCC3)c2c1 [Melatocicloexil (12), N‐(2‐(5‐methoxy‐1H‐indol‐3‐yl)ethyl)cyclohexanecarboxamide] | 35.2 ± 4.14 | 107.0 ± 1.37 | – | – | – | – | 47.6 ± 6.43 | 104 | 98.3 | – |
| O=S(=O)(NCCc1c[nH]c2ccccc12)c1ccccc1 [Tripbenz (4), N‐(2‐(1H‐indol‐3‐yl) ethyl)benzenesulfonamide] | 18.7 ± 2.5 | – | no toxicity | – | – | – | 36.8 ± 3.44 | 100 | 95.6 | – |
| O=C(NCCc1c[nH]c2ccccc12)c1ccc(Br)s1 [Triptiofen (6), N‐(2‐(1H‐indol‐3‐yl) ethyl)‐5‐bromothiophene‐2‐carboxamide] | 9.76 ± 0.6 | 104.1 ± 1.87 | no toxicity | able to abolish | 10 | 100.1 | 11.8 ± 0.6 | 99.8 | 98.7 | cytosolic calcium rise [8]: does not trigger a significant cytosolic calcium rise; Fmax/F0 (maximum fluorescence normalized to baseline) [8]: 1.11 ± 0.008; parasites in segmented schizont stage (P. falciparum (3D7); 1 µM): 1.33 ± 0.33; parasites in segmented schizont stage (P. falciparum (3D7); 10 µM): 2.22 ± 0.32; number of parasites compared to control (P. falciparum (3D7); 1 and 10 µM, starting at 36 hours, 3D7): significantly reduces |
| COc1ccc2[nH]cc(CCNC(=O)c3ccco3)c2c1 [Melatofuroila (11), N‐(2‐(5‐methoxy‐1H‐indol‐3‐yl)ethyl)furan‐2‐carboxamide] | 30.9 ± 4.92 | 99.78 ± 2.03 | – | – | – | – | 31.9 ± 0.46 | 102 | 97.1 | – |
| O=C(NCCc1c[nH]c2ccccc12)C1CCCCC1 [Tripcicloexil (8), N‐(2‐(1H‐indol‐3‐yl)ethyl)cyclohexanecarboxamide] | 28 ± 4.07 | 105.5 ± 0.91 | no toxicity | – | – | – | 37.6 ± 2.72 | 102 | 101 | – |
| COc1ccc2[nH]cc(CCNS(=O)(=O)c3ccccc3)c2c1 [Melatobenz (9), N‐(2‐(5‐methoxy‐1H‐indol‐3‐yl)ethyl)benzenesulfonamide] | 38.5 ± 1.57 | 105.0 ± 1.97 | – | – | – | – | 57.8 | 102 | 100 | – |
